Test results from the CheMixHub viscosity set.
± gives the uncertainty stated by the source.

Test: xn = mol fraction of the nth substance listed

O=CC(Cl)(Cl)Cl + C[N+](=O)[O-]
viscosity [mPa·s], 101.33 kPa
Details	x1 = 0.1002	x1 = 0.2003	x1 = 0.2963	x1 = 0.4004	x1 = 0.4966	x1 = 0.5833	x1 = 0.6948	x1 = 0.8007	x1 = 0.8965
298.15 K	0.661 ± 0.0087	0.7023 ± 0.0093	0.7591 ± 0.01	0.8043 ± 0.01	0.8435 ± 0.011	0.8874 ± 0.012	0.9389 ± 0.012	0.9876 ± 0.013	1.028 ± 0.013
323.15 K	0.5186 ± 0.007	0.5507 ± 0.0074	0.5793 ± 0.0078	0.6238 ± 0.0083	0.6316 ± 0.0084	0.6661 ± 0.0089	0.6895 ± 0.0092	0.7155 ± 0.0095	0.7491 ± 0.0099

ClC(Cl)Cl + CCOC(C)=O
303.15 K, 101.3 kPa
Details	viscosity [mPa·s]
x2 = 0.1062	0.5361 ± 0.0037
x2 = 0.2031	0.5455 ± 0.0038
x2 = 0.305	0.5471 ± 0.0038
x2 = 0.4094	0.5381 ± 0.0037
x2 = 0.5069	0.5255 ± 0.0037
x2 = 0.6112	0.5028 ± 0.0035
x2 = 0.808	0.4504 ± 0.0032
x2 = 0.9027	0.4254 ± 0.0031

ClC(Cl)Cl + Cc1ccccc1
298.15 K
Details	viscosity [mPa·s]
101 kPa, x1 = 0.1361	0.5653 ± 0.0071
101 kPa, x1 = 0.2872	0.5753 ± 0.0073
101 kPa, x1 = 0.4067	0.5833 ± 0.0073
101 kPa, x1 = 0.554	0.5861 ± 0.0074
101 kPa, x1 = 0.6211	0.584 ± 0.0074
101 kPa, x1 = 0.6656	0.58 ± 0.0073
101 kPa, x1 = 0.8806	0.5593 ± 0.0071
101.33 kPa, x1 = 0.0912	0.5573 ± 0.0056
101.33 kPa, x1 = 0.1727	0.5608 ± 0.0057
101.33 kPa, x1 = 0.2562	0.5636 ± 0.0057
101.33 kPa, x1 = 0.3481	0.5661 ± 0.0057
101.33 kPa, x1 = 0.5471	0.5687 ± 0.0057
101.33 kPa, x1 = 0.6862	0.5638 ± 0.0057
101.33 kPa, x1 = 0.8428	0.5531 ± 0.0056
101.33 kPa, x1 = 0.9237	0.545 ± 0.0055

CC[n+]1ccn(C)c1.COS(=O)(=O)[O-] + CN1CCCC1=O
101 kPa
Details	viscosity [mPa·s]
298.15 K, x1 = 0.243	9.19 ± 1.4
298.15 K, x1 = 0.9139	68.9 ± 12
298.15 K, x1 = 0.9581	76.81 ± 18
303.15 K, x1 = 0.243	7.33 ± 1.1
303.15 K, x1 = 0.282	8.88 ± 1.3
308.15 K, x1 = 0.282	6.76 ± 1
308.15 K, x1 = 0.3482	9.45 ± 1.4
313.15 K, x1 = 0.3482	8.19 ± 1.2

CCCCCCCCCCCCCCCC + CCCCCCCCCCCC
298.15 K, 101.33 kPa
Details	viscosity [mPa·s]
x2 = 0.1077	2.821 ± 0.034
x2 = 0.2113	2.643 ± 0.032
x2 = 0.3061	2.467 ± 0.03
x2 = 0.4097	2.281 ± 0.028
x2 = 0.5073	2.102 ± 0.025
x2 = 0.6082	1.936 ± 0.024
x2 = 0.7053	1.767 ± 0.022
x2 = 0.8045	1.636 ± 0.02
x2 = 0.905	1.476 ± 0.018

ClC(Cl)Cl + CO
viscosity [mPa·s]
Details	101 kPa	101.3 kPa
303 K, x1 = 0.096	–	0.5644 ± 0.01
303 K, x1 = 0.1963	–	0.6289 ± 0.011
303 K, x1 = 0.2971	–	0.6315 ± 0.011
303 K, x1 = 0.4963	–	0.5872 ± 0.011
303 K, x1 = 0.6952	–	0.5447 ± 0.01
303 K, x1 = 0.9092	–	0.5211 ± 0.0096
303.15 K, x1 = 0.0499	0.59 ± 0.016	–
303.15 K, x1 = 0.1326	0.642 ± 0.017	–
303.15 K, x1 = 0.3228	0.653 ± 0.017	–
303.15 K, x1 = 0.4234	0.634 ± 0.017	–
303.15 K, x1 = 0.5123	0.621 ± 0.016	–
303.15 K, x1 = 0.6981	0.608 ± 0.016	–
303.15 K, x1 = 0.8262	0.61 ± 0.016	–
303.15 K, x2 = 0.0625	0.509 ± 0.0038	0.509 ± 0.014
303.15 K, x2 = 0.0947	0.5084 ± 0.0038	0.5084 ± 0.013
303.15 K, x2 = 0.1406	0.5099 ± 0.0038	0.5099 ± 0.014
303.15 K, x2 = 0.183	0.5138 ± 0.0039	0.5138 ± 0.014
303.15 K, x2 = 0.2165	0.5168 ± 0.0039	0.5168 ± 0.014
303.15 K, x2 = 0.3004	0.5296 ± 0.004	0.5296 ± 0.014
303.15 K, x2 = 0.3311	0.5343 ± 0.0041	0.5343 ± 0.014
303.15 K, x2 = 0.3671	0.5424 ± 0.0041	0.5424 ± 0.014
303.15 K, x2 = 0.3854	0.546 ± 0.0042	0.546 ± 0.015
303.15 K, x2 = 0.4503	0.5601 ± 0.0043	0.5601 ± 0.015
303.15 K, x2 = 0.5306	0.5764 ± 0.0045	0.5764 ± 0.015
303.15 K, x2 = 0.615	0.5904 ± 0.0046	0.5904 ± 0.016
303.15 K, x2 = 0.7056	0.5975 ± 0.0047	0.5975 ± 0.016
303.15 K, x2 = 0.743	0.5962 ± 0.0048	0.5962 ± 0.016
303.15 K, x2 = 0.8147	0.5864 ± 0.0048	0.5864 ± 0.016
303.15 K, x2 = 0.8944	0.5613 ± 0.0046	0.5613 ± 0.015
303.15 K, x2 = 0.9355	0.5417 ± 0.0045	0.5417 ± 0.014
303.15 K, x2 = 0.961	0.5281 ± 0.0045	0.5281 ± 0.014
311 K, x1 = 0.096	–	0.5043 ± 0.0094
311 K, x1 = 0.1963	–	0.5549 ± 0.01
311 K, x1 = 0.2971	–	0.5593 ± 0.01
311 K, x1 = 0.4963	–	0.5271 ± 0.0097
311 K, x1 = 0.6952	–	0.4971 ± 0.0093
311 K, x1 = 0.9092	–	0.4822 ± 0.0091
313.15 K, x1 = 0.0499	0.527 ± 0.014	–
313.15 K, x1 = 0.1326	0.557 ± 0.015	–
313.15 K, x1 = 0.3228	0.566 ± 0.015	–
313.15 K, x1 = 0.4234	0.554 ± 0.015	–
313.15 K, x1 = 0.5123	0.549 ± 0.015	–
313.15 K, x1 = 0.6981	0.545 ± 0.015	–
313.15 K, x1 = 0.8262	0.55 ± 0.015	–
319 K, x1 = 0.096	–	0.4586 ± 0.0087
319 K, x1 = 0.1963	–	0.4932 ± 0.0092
319 K, x1 = 0.2971	–	0.5022 ± 0.0094
319 K, x1 = 0.4963	–	0.4779 ± 0.009
319 K, x1 = 0.6952	–	0.4574 ± 0.0087
319 K, x1 = 0.9092	–	0.4489 ± 0.0086
323.15 K, x1 = 0.0499	0.439 ± 0.012	–
323.15 K, x1 = 0.1326	0.448 ± 0.012	–
323.15 K, x1 = 0.3228	0.451 ± 0.012	–
323.15 K, x1 = 0.4234	0.468 ± 0.013	–
323.15 K, x1 = 0.5123	0.474 ± 0.013	–
323.15 K, x1 = 0.6981	0.482 ± 0.013	–
323.15 K, x1 = 0.8262	0.496 ± 0.013	–

CCCCCCCCCC(=O)OC + CCCO
viscosity [mPa·s], 100 kPa
Details	x1 = 0.0999	x1 = 0.1999	x1 = 0.2999	x1 = 0.3995	x1 = 0.4995	x1 = 0.599	x1 = 0.6999	x1 = 0.8002	x1 = 0.8976
298.15 K	1.745 ± 0.11	1.671 ± 0.1	1.648 ± 0.099	1.652 ± 0.1	1.676 ± 0.1	1.702 ± 0.1	1.746 ± 0.11	1.788 ± 0.11	1.859 ± 0.11
303.15 K	1.566 ± 0.095	1.506 ± 0.091	1.487 ± 0.09	1.495 ± 0.09	1.515 ± 0.091	1.547 ± 0.093	1.583 ± 0.096	1.622 ± 0.098	1.692 ± 0.1
308.15 K	1.408 ± 0.085	1.361 ± 0.082	1.35 ± 0.081	1.36 ± 0.082	1.38 ± 0.083	1.413 ± 0.085	1.442 ± 0.087	1.482 ± 0.09	1.546 ± 0.093
313.15 K	1.271 ± 0.077	1.236 ± 0.075	1.228 ± 0.074	1.241 ± 0.075	1.262 ± 0.076	1.295 ± 0.078	1.325 ± 0.08	1.36 ± 0.082	1.418 ± 0.086
318.15 K	1.151 ± 0.069	1.124 ± 0.068	1.124 ± 0.068	1.136 ± 0.069	1.161 ± 0.07	1.19 ± 0.072	1.216 ± 0.073	1.252 ± 0.076	1.304 ± 0.079
323.15 K	1.045 ± 0.063	1.027 ± 0.062	1.031 ± 0.062	1.045 ± 0.063	1.067 ± 0.064	1.097 ± 0.066	1.126 ± 0.068	1.158 ± 0.07	1.207 ± 0.073

CCCCCCCCCCCCCCCC + CCCCCCC
Details	viscosity [mPa·s]
293.17 K, 101 kPa, x1 = 0.097	0.553 ± 0.015
293.17 K, 101 kPa, x1 = 0.195	0.73 ± 0.019
293.17 K, 101 kPa, x1 = 0.492	1.475 ± 0.039
293.17 K, 101 kPa, x1 = 0.785	2.597 ± 0.068
298 K, 101 kPa, x2 = 0.5	1.377 ± 0.036
298.15 K, 101 kPa, x1 = 0.211	0.7064 ± 0.016
298.15 K, 101 kPa, x1 = 0.4067	1.102 ± 0.021
298.15 K, 101 kPa, x1 = 0.5795	1.552 ± 0.024
298.15 K, 101 kPa, x1 = 0.7867	2.202 ± 0.026
298.15 K, 101.33 kPa, x2 = 0.1067	2.618 ± 0.032
298.15 K, 101.33 kPa, x2 = 0.1981	2.268 ± 0.027
298.15 K, 101.33 kPa, x2 = 0.3001	1.922 ± 0.023
298.15 K, 101.33 kPa, x2 = 0.4055	1.603 ± 0.02
298.15 K, 101.33 kPa, x2 = 0.5077	1.307 ± 0.016
298.15 K, 101.33 kPa, x2 = 0.607	1.08 ± 0.014
298.15 K, 101.33 kPa, x2 = 0.7086	0.8554 ± 0.011
298.15 K, 101.33 kPa, x2 = 0.8028	0.68 ± 0.0091
298.15 K, 101.33 kPa, x2 = 0.9019	0.5217 ± 0.0073
303.15 K, 101 kPa, x1 = 0.097	0.485 ± 0.013
303.15 K, 101 kPa, x1 = 0.195	0.632 ± 0.017
303.15 K, 101 kPa, x1 = 0.492	1.233 ± 0.032
303.15 K, 101 kPa, x1 = 0.785	2.079 ± 0.055
318 K, 101 kPa, x2 = 0.5	1.005 ± 0.026
